Reference: patent publication US10774064B2 (Cadent Therapeutics, Inc., priority 2016, dated 2020)

These compounds were tested against T1, small-conductance Ca2+-activated K+ channels (SK channels, subtype 2) (Homo sapiens, UniProt Q9H2S1) (assay: whole-cell patch-clamp of ionic current through SK2 channels in HEK293 cells (SC100)). Details: concentration that increases the basal current by 100%; HEK293 cells expressing SK2 channels.
T1 construct: expressed in transfected cells; host or cells: HEK293
Type: cell-based
Procedure, shortened: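 Whole-cell patch-clamp recording of current in HEK293 cells expressing SK2 channels. SC100 is the compound concentration that increases basal current by 100%.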

Compound	SC100
Cc1cc(C)n(-c2nc(NCc3cn(C)nn3)cc(NC3CCC(F)(F)CC3)n2)n1 [Compound 233, N4-(4,4-difluorocyclohexyl)-2-(3,5-dimethyl-1H-pyrazol-1-yl)-N6-((1-methyl-1H-1,2,3-triazol-4-yl)methyl)pyrimidine-4,6-diamine]	++ (++ means 200 nM-1000 nM)
Cc1cc(C)n(-c2cc(NCC(C)(C)C)cc(NC3CCC(F)(F)CC3)n2)n1 [Compound 234, N2-(4,4-difluorocyclohexyl)-6-(3,5-dimethyl-1H-pyrazol-1-yl)-N4-neopentylpyridine-2,4-diamine]	+ (+ means >1 uM)
Cc1cc(C)n(-c2nc(NCc3cnn(C)n3)cc(NC3CCC(F)(F)CC3)n2)n1 [Compound 235, N4-(4,4-difluorocyclohexyl)-2-(3,5-dimethyl-1H-pyrazol-1-yl)-N6-((2-methyl-2H-1,2,3-triazol-4-yl)methyl)pyrimidine-4,6-diamine]	++ (++ means 200 nM-1000 nM)
Cc1cc(NC2CCC(F)(F)CC2)nc(-n2cc(C)c(CO)n2)n1 [Compound 236, (1-(4-((4,4-difluorocyclohexyl)amino)-6-methylpyrimidin-2-yl)-4-methyl-1H-pyrazol-3-yl)methanol]	+ (+ means >1 uM)
Cc1cc(NC2CCC(F)(F)CC2)nc(-n2nc(C(F)F)cc2C)n1 [Compound 237, N-(4,4-difluorocyclohexyl)-2-(3-(difluoromethyl)-5-methyl-1H-pyrazol-1-yl)-6-methylpyrimidin-4-amine]	++ (++ means 200 nM-1000 nM)
Cc1cc(C)n(-c2cc(N(C)C3COC3)cc(NC3CCC(F)(F)CC3)n2)n1 [Compound 238, N2-(4,4-difluorocyclohexyl)-6-(3,5-dimethyl-1H-pyrazol-1-yl)-N4-methyl-N4-(oxetan-3-yl)pyridine-2,4-diamine]	++ (++ means 200 nM-1000 nM)
Cc1cc(C)n(-c2cc(NC(C(N)=O)C(C)C)cc(NC3CCC(F)(F)CC3)n2)n1 (stereo not drawn) [Compound 239, 2-((2-((4,4-difluorocyclohexyl)amino)-6-(3,5-dimethyl-1H-pyrazol-1-yl)pyridin-4-yl)amino)-3-methylbutanamide]	++ (++ means 200 nM-1000 nM)
Cc1cc(C)n(-c2cc(N(C)C3COC3)cc(N(C)C3CCC(F)(F)CC3)n2)n1 [Compound 240, N2-(4,4-difluorocyclohexyl)-6-(3,5-dimethyl-1H-pyrazol-1-yl)-N2,N4-dimethyl-N4-(oxetan-3-yl)pyridine-2,4-diamine]	+ (+ means >1 uM)
Cc1cc(NC2CCC(F)(F)CC2)nc(-n2nc(CO)cc2C)n1 [Compound 241, (1-(4-((4,4-difluorocyclohexyl)amino)-6-methylpyrimidin-2-yl)-5-methyl-1H-pyrazol-3-yl)methanol]	+ (+ means >1 uM)
Cc1ccn(-c2nc(NC3CCC(F)(F)CC3)cc(C3COCCC3(F)F)n2)n1 (stereo not drawn) [Compound 242, N-(4,4-difluorocyclohexyl)-6-(4,4-difluorotetrahydro-2H-pyran-3-yl)-2-(3-methyl-1H-pyrazol-1-yl)pyrimidin-4-amine]	+ (+ means >1 uM)
Cc1cc(C)n(-c2nc(NC3CCC(F)(F)CC3)cc(NC3COC3)n2)n1 [Compound 243, N4-(4,4-difluorocyclohexyl)-2-(3,5-dimethyl-1H-pyrazol-1-yl)-N6-(oxetan-3-yl)pyrimidine-4,6-diamine]	+ (+ means >1 uM)
Cc1cc(C)n(-c2cc(OCc3cn(C)nn3)cc(NC3CCC(F)(F)CC3)n2)n1 [Compound 244, N-(4,4-difluorocyclohexyl)-6-(3,5-dimethyl-1H-pyrazol-1-yl)-4-((l-methyl-1H-1,2,3-triazol-4-yl)methoxy)pyridin-2-amine]	++ (++ means 200 nM-1000 nM)
Cc1cc(NC2C[C@@H]3[C@H](C2)C3(F)F)nc(-n2ccc(C)n2)n1 (stereo partly drawn) [Compound 245, N-((1R,5S)-6,6-difluorobicyclo[3.1.0]hexan-3-yl)-6-methyl-2-(3-methyl-1H-pyrazol-1-yl)pyrimidin-4-amine]	+ (+ means >1 uM)
Cc1cc(NC2CCC(F)(F)CC2)nc(-n2cc(C)c(C(F)F)n2)n1 [Compound 246, N-(4,4-difluorocyclohexyl)-2-(3-(difluoromethyl)-4-methyl-1H-pyrazol-1-yl)-6-methylpyrimidin-4-amine]	+++ (+++ means <200 nM)
Cc1cc(NC2CCC(F)(F)CC2)nc(-n2nc(C)cc2C)n1 [Compound 247, N-(4,4-difluorocyclohexyl)-2-(3,5-dimethyl-1H-pyrazol-1-yl)-6-methylpyrimidin-4-amine]	++ (++ means 200 nM-1000 nM)
Cc1cc(C)n(-c2cc(NCc3cnn(C)n3)cc(NC3CCC(F)(F)CC3)n2)n1 [Compound 248, N2-(4,4-difluorocyclohexyl)-6-(3,5-dimethyl-1H-pyrazol-1-yl)-N4-((2-methyl-2H-1,2,3-triazol-4-yl)methyl)pyridine-2,4-diamine]	++ (++ means 200 nM-1000 nM)
CCc1cc(C)n(-c2nc(C)cc(NC3CCC(F)(F)CC3)n2)n1 [Compound 249, N-(4,4-difluorocyclohexyl)-2-(3-ethyl-5-methyl-1H-pyrazol-1-yl)-6-methyl pyrimidin-4-amine]	+ (+ means >1 uM)
Cc1cc(C)n(-c2cc(NCc3cnnn3C)cc(NC3CCC(F)(F)CC3)n2)n1 [Compound 250, N2-(4,4-difluorocyclohexyl)-6-(3,5-dimethyl-1H-pyrazol-1-yl)-N4-((1-methyl-1H-1,2,3-triazol-5-yl)methyl)pyridine-2,4-diamine]	++ (++ means 200 nM-1000 nM)
Cc1cc(C)n(-c2cc(OCc3cnn(C)n3)cc(NC3CCC(F)(F)CC3)n2)n1 [Compound 251, N-(4,4-difluorocyclohexyl)-6-(3,5-dimethyl-1H-pyrazol-1-yl)-4-((2-methyl-2H-1,2,3-triazol-4-yl)methoxy)pyridin-2-amine]	++ (++ means 200 nM-1000 nM)
Cc1cc(C)n(-c2cc(NCc3nnc(C)o3)cc(NC3CCC(F)(F)CC3)n2)n1 [Compound 252, N2-(4,4-difluorocyclohexyl)-6-(3,5-dimethyl-1H-pyrazol-1-yl)-N4-((5-methyl-1,3,4-oxadiazol-2-yl)methyl)pyridine-2,4-diamine]	+ (+ means >1 uM)
Cc1cc(NC2CCC(F)(F)CC2)nc(-n2cc(C)c(C#N)n2)n1 [Compound 253, 1-(4-((4,4-difluorocyclohexyl)amino)-6-methylpyrimidin-2-yl)-4-methyl-1H-pyrazole-3-carbonitrile]	++ (++ means 200 nM-1000 nM)
Cc1cc(C)n(-c2nc(NC3CCC(F)(F)CC3)cc([C@@H]3COCC[C@H]3O)n2)n1 [Compound 254, (+)-3-(6-((4,4-difluorocyclohexyl)amino)-2-(3,5-dimethyl-1H-pyrazol-1-yl)pyrimidin-4-yl)tetrahydro-2H-pyran-4-ol]	+ (+ means >1 uM)
Cc1cc(C)n(-c2cc(NC(C)c3nccs3)cc(NC3CCC(F)(F)CC3)n2)n1 (stereo not drawn) [Compound 255, N2-(4,4-difluorocyclohexyl)-6-(3,5-dimethyl-1H-pyrazol-1-yl)-N4-(1-(thiazol-2-yl)ethyl)pyridine-2,4-diamine]	+ (+ means >1 uM)
Cc1cc(NC2CCC(F)(F)CC2)nc(-n2nc(CF)cc2C)n1 [Compound 256, N-(4,4-difluorocyclohexyl)-2-(3-(fluoromethyl)-5-methyl-1H-pyrazol-1-yl)-6-methylpyrimidin-4-amine]	++ (++ means 200 nM-1000 nM)
